Results reported in the kinase profiling compilation of Christmann-Franck et al. (2016).
Blank lines part the entries; values can stand above or below the molecule they belong to.

Columns and labels:
Test in all cases: radiometric filter-binding kinase assay, Kinase HotSpot
Conditions in all cases: compound 0.5 µM; ATP 10 µM
EPHA4 (human) = EPHA4 (human) (UniProt P54764)
PRKCB2 (human) = PRKCB2 (human) (UniProt P05771)
CAMK4 (human) = CAMK4 (human) (UniProt Q16566)
ADRBK2 (human) = ADRBK2 (human) (UniProt P35626)
MKNK2 (human) = MKNK2 (human) (UniProt Q9HBH9)
PHKG1 (human) = PHKG1 (human) (UniProt Q16816)
PRKCZ (human) = PRKCZ (human) (UniProt Q05513)
HIPK4 (human) = HIPK4 (human) (UniProt Q8NE63)
PAK1 (human) = PAK1 (human) (UniProt Q13153)
RPS6KA5 KD2 (human) = RPS6KA5 KD2 (human) (UniProt O75582)
HIPK2 (human) = HIPK2 (human) (UniProt Q9H2X6)
MAP3K11 (human) = MAP3K11 (human) (UniProt Q16584)
CAMKK1 (human) = CAMKK1 (human) (UniProt Q8N5S9)
ZAP70 (human) = ZAP70 (human) (UniProt P43403)
MELK (human) = MELK (human) (UniProt Q14680)
PAK3 (human) = PAK3 (human) (UniProt O75914)
TXK (human) = TXK (human) (UniProt P42681)
MAPKAPK5 (human) = MAPKAPK5 (human) (UniProt Q8IW41)
WEE1 (human) = WEE1 (human) (UniProt P30291)
ALK (human) = ALK (human) (UniProt Q9UM73)
PRKCE (human) = PRKCE (human) (UniProt Q02156)
BRSK1 (human) = BRSK1 (human) (UniProt Q8TDC3)
STK11 (human) = STK11 (human) (UniProt Q15831)
ROCK2 (human) = ROCK2 (human) (UniProt O75116)
CDK2 CCNA2 (human) = CDK2 CCNA2 (human) (UniProt P24941+P20248)
MAP3K3 (human) = MAP3K3 (human) (UniProt Q99759)
MYLK2 (human) = MYLK2 (human) (UniProt Q9H1R3)
MAPK9 (human) = MAPK9 (human) (UniProt P45984)
NEK11 (human) = NEK11 (human) (UniProt Q8NG66)
NTRK2 (human) = NTRK2 (human) (UniProt Q16620)
RET (human) = RET (human) (UniProt P07949)
VRK1 (human) = VRK1 (human) (UniProt Q99986)
SGK2 (human) = SGK2 (human) (UniProt Q9HBY8)
WNK3 (human) = WNK3 (human) (UniProt Q9BYP7)
MARK4 (human) = MARK4 (human) (UniProt Q96L34)
STK24 (human) = STK24 (human) (UniProt Q9Y6E0)
PAK6 (human) = PAK6 (human) (UniProt Q9NQU5)
CDC42BPB (human) = CDC42BPB (human) (UniProt Q9Y5S2)
MET (human) = MET (human) (UniProt P08581)
DAPK3 (human) = DAPK3 (human) (UniProt O43293)
MARK1 (human) = MARK1 (human) (UniProt Q9P0L2)
IGF1R (human) = IGF1R (human) (UniProt P08069)

Sequence of WNK3 (human) (Q9BYP7 whole entry, looked up): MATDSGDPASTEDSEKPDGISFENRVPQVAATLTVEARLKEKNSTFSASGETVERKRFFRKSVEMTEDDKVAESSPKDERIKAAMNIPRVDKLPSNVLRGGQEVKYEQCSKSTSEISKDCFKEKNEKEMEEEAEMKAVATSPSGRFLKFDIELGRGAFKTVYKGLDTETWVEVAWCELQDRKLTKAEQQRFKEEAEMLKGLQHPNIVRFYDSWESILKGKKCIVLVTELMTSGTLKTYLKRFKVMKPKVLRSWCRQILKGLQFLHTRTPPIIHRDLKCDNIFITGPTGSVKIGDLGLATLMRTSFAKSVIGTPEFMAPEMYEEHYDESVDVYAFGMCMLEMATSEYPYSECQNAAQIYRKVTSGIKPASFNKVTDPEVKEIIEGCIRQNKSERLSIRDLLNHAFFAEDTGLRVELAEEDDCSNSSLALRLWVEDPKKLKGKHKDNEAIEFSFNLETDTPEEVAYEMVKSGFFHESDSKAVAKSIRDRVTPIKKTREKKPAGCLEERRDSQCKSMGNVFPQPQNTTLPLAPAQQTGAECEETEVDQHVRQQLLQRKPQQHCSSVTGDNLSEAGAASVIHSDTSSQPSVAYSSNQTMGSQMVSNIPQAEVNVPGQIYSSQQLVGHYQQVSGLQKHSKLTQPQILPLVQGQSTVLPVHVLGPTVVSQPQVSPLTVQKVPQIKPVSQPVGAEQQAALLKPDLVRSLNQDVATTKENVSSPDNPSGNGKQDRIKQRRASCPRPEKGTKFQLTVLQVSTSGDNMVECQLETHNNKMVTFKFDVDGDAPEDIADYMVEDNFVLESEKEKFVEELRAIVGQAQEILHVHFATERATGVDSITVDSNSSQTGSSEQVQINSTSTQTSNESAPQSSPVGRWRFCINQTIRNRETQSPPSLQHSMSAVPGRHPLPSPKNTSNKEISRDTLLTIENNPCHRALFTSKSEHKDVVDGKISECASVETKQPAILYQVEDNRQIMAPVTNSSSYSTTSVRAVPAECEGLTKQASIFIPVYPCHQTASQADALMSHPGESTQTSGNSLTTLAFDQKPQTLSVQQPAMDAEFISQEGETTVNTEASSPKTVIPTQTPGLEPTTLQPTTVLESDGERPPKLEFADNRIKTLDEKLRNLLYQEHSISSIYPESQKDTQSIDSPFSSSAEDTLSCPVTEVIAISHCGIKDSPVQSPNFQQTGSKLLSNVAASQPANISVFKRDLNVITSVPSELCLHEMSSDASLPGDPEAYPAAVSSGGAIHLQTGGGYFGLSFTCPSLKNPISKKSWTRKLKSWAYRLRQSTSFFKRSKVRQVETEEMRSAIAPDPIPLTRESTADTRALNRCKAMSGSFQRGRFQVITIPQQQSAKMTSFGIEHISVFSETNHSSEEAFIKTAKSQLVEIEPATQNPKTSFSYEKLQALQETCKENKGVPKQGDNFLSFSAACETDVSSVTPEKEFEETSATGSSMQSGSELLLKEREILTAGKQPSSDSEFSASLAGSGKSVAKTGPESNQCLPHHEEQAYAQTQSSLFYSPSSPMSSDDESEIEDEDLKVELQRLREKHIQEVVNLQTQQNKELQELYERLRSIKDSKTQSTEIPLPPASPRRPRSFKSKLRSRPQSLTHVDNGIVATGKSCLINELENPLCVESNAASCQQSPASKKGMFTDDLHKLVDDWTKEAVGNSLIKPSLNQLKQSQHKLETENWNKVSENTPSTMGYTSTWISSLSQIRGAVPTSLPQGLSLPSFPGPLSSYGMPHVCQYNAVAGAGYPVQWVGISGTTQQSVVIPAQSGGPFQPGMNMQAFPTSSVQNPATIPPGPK
Sequence of HIPK4 (human) (Q8NE63 whole entry, looked up): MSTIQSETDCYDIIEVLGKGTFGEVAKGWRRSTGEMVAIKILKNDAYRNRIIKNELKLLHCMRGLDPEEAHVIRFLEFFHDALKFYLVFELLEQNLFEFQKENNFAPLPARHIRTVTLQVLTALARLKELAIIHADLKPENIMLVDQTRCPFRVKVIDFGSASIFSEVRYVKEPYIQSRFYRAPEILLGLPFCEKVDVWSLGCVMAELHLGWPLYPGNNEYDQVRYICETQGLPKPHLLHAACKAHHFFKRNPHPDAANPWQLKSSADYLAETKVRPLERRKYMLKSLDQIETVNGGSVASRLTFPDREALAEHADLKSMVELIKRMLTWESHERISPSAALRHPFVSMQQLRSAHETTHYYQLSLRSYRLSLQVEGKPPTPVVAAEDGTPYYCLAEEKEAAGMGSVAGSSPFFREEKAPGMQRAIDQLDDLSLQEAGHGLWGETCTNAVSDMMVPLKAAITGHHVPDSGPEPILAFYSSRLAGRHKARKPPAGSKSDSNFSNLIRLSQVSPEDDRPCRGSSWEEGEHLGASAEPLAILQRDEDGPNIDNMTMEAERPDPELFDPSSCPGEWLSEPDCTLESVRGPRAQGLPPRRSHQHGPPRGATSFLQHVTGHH
Sequence of MYLK2 (human) (Q9H1R3 whole entry, looked up): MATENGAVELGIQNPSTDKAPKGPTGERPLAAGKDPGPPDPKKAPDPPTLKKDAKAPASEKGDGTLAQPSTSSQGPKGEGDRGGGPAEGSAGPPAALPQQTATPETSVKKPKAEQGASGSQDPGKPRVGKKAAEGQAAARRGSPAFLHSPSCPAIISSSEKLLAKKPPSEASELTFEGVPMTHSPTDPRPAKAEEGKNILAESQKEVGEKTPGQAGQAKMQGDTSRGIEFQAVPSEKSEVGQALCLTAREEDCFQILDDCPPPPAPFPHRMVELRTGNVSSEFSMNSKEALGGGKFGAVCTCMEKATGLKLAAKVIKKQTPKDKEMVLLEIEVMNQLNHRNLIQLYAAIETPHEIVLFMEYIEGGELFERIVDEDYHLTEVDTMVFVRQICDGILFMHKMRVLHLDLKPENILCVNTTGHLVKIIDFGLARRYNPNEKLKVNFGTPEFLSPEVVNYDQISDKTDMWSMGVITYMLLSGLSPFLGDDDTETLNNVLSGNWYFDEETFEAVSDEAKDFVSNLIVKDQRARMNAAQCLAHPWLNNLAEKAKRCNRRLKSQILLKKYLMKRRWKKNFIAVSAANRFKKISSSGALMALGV
Sequence of STK24 (human) (Q9Y6E0 whole entry, looked up): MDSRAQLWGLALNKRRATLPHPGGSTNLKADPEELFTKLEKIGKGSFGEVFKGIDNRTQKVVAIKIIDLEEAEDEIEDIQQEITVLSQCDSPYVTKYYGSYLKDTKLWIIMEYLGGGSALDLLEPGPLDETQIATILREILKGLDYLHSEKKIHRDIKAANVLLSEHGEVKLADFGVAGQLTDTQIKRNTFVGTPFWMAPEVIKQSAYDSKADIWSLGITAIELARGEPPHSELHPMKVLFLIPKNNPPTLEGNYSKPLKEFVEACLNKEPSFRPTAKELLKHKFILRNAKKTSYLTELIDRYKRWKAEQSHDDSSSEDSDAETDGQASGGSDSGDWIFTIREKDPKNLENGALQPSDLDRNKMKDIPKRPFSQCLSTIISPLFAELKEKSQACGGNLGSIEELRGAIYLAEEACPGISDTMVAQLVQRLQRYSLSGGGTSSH
Sequence of MARK4 (human) (Q96L34 whole entry, looked up): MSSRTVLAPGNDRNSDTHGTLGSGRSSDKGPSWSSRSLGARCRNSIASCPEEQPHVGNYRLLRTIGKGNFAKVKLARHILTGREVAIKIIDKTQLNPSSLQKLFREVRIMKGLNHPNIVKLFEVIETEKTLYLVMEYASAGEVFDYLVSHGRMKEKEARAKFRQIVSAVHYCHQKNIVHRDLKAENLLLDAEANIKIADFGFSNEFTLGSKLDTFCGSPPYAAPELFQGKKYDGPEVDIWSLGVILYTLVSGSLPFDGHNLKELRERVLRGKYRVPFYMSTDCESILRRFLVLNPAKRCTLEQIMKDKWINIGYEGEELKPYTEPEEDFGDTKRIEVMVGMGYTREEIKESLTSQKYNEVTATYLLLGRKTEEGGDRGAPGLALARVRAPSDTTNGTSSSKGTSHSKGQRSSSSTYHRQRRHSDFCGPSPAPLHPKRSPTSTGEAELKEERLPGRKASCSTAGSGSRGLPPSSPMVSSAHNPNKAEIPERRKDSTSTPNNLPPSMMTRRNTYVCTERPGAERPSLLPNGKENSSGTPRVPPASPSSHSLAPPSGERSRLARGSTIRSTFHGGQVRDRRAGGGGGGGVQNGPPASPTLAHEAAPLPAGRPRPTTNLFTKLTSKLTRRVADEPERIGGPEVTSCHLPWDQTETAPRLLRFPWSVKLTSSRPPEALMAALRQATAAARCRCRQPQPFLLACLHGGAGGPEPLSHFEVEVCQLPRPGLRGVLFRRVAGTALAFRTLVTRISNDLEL
Sequence of PAK3 (human) (O75914 whole entry, looked up): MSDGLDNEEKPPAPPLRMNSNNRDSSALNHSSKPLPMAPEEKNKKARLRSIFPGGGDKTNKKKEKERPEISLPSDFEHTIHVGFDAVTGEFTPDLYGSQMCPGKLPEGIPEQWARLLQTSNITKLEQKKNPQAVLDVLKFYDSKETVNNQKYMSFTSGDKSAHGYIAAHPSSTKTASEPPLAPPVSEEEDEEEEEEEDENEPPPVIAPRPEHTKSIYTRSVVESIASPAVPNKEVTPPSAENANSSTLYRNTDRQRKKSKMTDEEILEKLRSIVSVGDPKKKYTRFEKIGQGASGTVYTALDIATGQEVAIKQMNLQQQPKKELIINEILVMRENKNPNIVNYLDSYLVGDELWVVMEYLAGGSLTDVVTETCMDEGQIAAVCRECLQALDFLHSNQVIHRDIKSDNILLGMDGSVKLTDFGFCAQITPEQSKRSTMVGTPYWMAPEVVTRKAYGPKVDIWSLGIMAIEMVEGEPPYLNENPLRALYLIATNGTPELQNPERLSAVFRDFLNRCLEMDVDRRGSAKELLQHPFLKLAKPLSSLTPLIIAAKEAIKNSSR

SMILES: O=C(Nc1ccc(Cl)cc1)c1ccccc1NCc1ccncc1
- residual activity (EPHA4 (human)): 96.5%
- residual activity (PRKCB2 (human)): 93.3%
- residual activity (CAMK4 (human)): 101%
- residual activity (ADRBK2 (human)): 96.1%
- residual activity (MKNK2 (human)): 82.3%
- residual activity (PHKG1 (human)): 94.2%
- residual activity (PRKCZ (human)): 100%
- residual activity (HIPK4 (human)): 103%
- residual activity (PAK1 (human)): 94.9%
- residual activity (RPS6KA5 KD2 (human)): 92.5%
- residual activity (HIPK2 (human)): 93%
- residual activity (MAP3K11 (human)): 89%
- residual activity (CAMKK1 (human)): 98.5%
- residual activity (ZAP70 (human)): 103%
- residual activity (MELK (human)): 92.3%
- residual activity (PAK3 (human)): 95.5%
- residual activity (TXK (human)): 97.7%
- residual activity (MAPKAPK5 (human)): 88.7%
- residual activity (WEE1 (human)): 90.1%
- residual activity (ALK (human)): 103%
- residual activity (PRKCE (human)): 97%
- residual activity (BRSK1 (human)): 94%
- residual activity (STK11 (human)): 93.5%
- residual activity (ROCK2 (human)): 93.8%
- residual activity (CDK2 CCNA2 (human)): 92.2%
- residual activity (MAP3K3 (human)): 96.2%
- residual activity (MYLK2 (human)): 99.5%
- residual activity (MAPK9 (human)): 102%
- residual activity (NEK11 (human)): 104%
- residual activity (NTRK2 (human)): 102%
- residual activity (RET (human)): 58.9%
- residual activity (VRK1 (human)): 104%
- residual activity (SGK2 (human)): 103%
- residual activity (WNK3 (human)): 92.9%
- residual activity (MARK4 (human)): 107%
- residual activity (STK24 (human)): 92.6%
- residual activity (PAK6 (human)): 101%
- residual activity (CDC42BPB (human)): 79.9%
- residual activity (MET (human)): 92.2%
- residual activity (DAPK3 (human)): 94%
- residual activity (MARK1 (human)): 94.7%

- residual activity (EPHA4 (human)): 90.2%
- residual activity (PRKCB2 (human)): 108%
- residual activity (IGF1R (human)): 103%
- residual activity (CAMK4 (human)): 96.3%
- residual activity (ADRBK2 (human)): 104%
- residual activity (MKNK2 (human)): 75.3%
- residual activity (PHKG1 (human)): 41.8%
- residual activity (PRKCZ (human)): 100%
- residual activity (HIPK4 (human)): 106%
- residual activity (PAK1 (human)): 89.8%
- residual activity (RPS6KA5 KD2 (human)): 82.6%
- residual activity (HIPK2 (human)): 96.2%
- residual activity (MAP3K11 (human)): 16%
- residual activity (CAMKK1 (human)): 50.5%
- residual activity (ZAP70 (human)): 107%
- residual activity (MELK (human)): 43.5%
- residual activity (PAK3 (human)): 99.7%
- residual activity (TXK (human)): 27.7%
- residual activity (MAPKAPK5 (human)): 82.7%
- residual activity (WEE1 (human)): 96%
- residual activity (ALK (human)): 88.5%
- residual activity (PRKCE (human)): 92.4%
- residual activity (BRSK1 (human)): 14.6%
- residual activity (STK11 (human)): 42.1%
- residual activity (ROCK2 (human)): 92.1%
- residual activity (CDK2 CCNA2 (human)): 7.66%
- residual activity (MAP3K3 (human)): 107%
- residual activity (MYLK2 (human)): 17.6%
- residual activity (MAPK9 (human)): 80.3%
- residual activity (NEK11 (human)): 118%
- residual activity (NTRK2 (human)): 10.3%
- residual activity (RET (human)): 0.0602%
- residual activity (VRK1 (human)): 98%
- residual activity (SGK2 (human)): 73%
- residual activity (WNK3 (human)): 93.8%
- residual activity (STK24 (human)): 90.9%
- residual activity (PAK6 (human)): 86.3%
- residual activity (CDC42BPB (human)): 97.5%
- residual activity (MET (human)): 70%
- residual activity (DAPK3 (human)): 84.9%
- residual activity (MARK1 (human)): 64.2%
SMILES: O=C1Nc2cc(Br)ccc2/C1=C1/Nc2ccccc2/C1=N\O

SMILES: Nc1nc(Nc2ccc(S(N)(=O)=O)cc2)nn1C(=O)c1c(F)cccc1F
- residual activity (EPHA4 (human)): 91.3%
- residual activity (PRKCB2 (human)): 90.5%
- residual activity (IGF1R (human)): 86.9%
- residual activity (CAMK4 (human)): 96.8%
- residual activity (ADRBK2 (human)): 87.2%
- residual activity (MKNK2 (human)): 95.9%
- residual activity (PHKG1 (human)): 102%
- residual activity (PRKCZ (human)): 99.9%
- residual activity (HIPK4 (human)): 67.7%
- residual activity (PAK1 (human)): 89.5%
- residual activity (RPS6KA5 KD2 (human)): 97.2%
- residual activity (HIPK2 (human)): 72.8%
- residual activity (MAP3K11 (human)): 47.2%
- residual activity (CAMKK1 (human)): 86.4%
- residual activity (ZAP70 (human)): 94.8%
- residual activity (MELK (human)): 87.2%
- residual activity (TXK (human)): 95.8%
- residual activity (MAPKAPK5 (human)): 80.3%
- residual activity (WEE1 (human)): 83.6%
- residual activity (ALK (human)): 90.1%
- residual activity (PRKCE (human)): 97.2%
- residual activity (BRSK1 (human)): 49.2%
- residual activity (STK11 (human)): 85.8%
- residual activity (ROCK2 (human)): 18.6%
- residual activity (CDK2 CCNA2 (human)): 2.21%
- residual activity (MAP3K3 (human)): 27.5%
- residual activity (MYLK2 (human)): 96.1%
- residual activity (MAPK9 (human)): 93.7%
- residual activity (NEK11 (human)): 95.8%
- residual activity (NTRK2 (human)): 42.8%
- residual activity (RET (human)): 54.1%
- residual activity (VRK1 (human)): 90.4%
- residual activity (SGK2 (human)): 106%
- residual activity (WNK3 (human)): 98.3%
- residual activity (MARK4 (human)): 48%
- residual activity (STK24 (human)): 76.9%
- residual activity (PAK6 (human)): 101%
- residual activity (CDC42BPB (human)): 96%
- residual activity (MET (human)): 75.3%
- residual activity (DAPK3 (human)): 99.4%
- residual activity (MARK1 (human)): 64.1%

SMILES: CS(=O)c1ccc(-c2nc(-c3ccc(F)cc3)c(-c3ccncc3)[nH]2)cc1 (centres undefined)
- residual activity (EPHA4 (human)): 95.6%
- residual activity (PRKCB2 (human)): 97.9%
- residual activity (IGF1R (human)): 94.3%
- residual activity (CAMK4 (human)): 101%
- residual activity (ADRBK2 (human)): 98.2%
- residual activity (MKNK2 (human)): 94.4%
- residual activity (PHKG1 (human)): 94.1%
- residual activity (PRKCZ (human)): 103%
- residual activity (HIPK4 (human)): 93.5%
- residual activity (PAK1 (human)): 99.2%
- residual activity (RPS6KA5 KD2 (human)): 103%
- residual activity (HIPK2 (human)): 102%
- residual activity (MAP3K11 (human)): 96.4%
- residual activity (CAMKK1 (human)): 125%
- residual activity (ZAP70 (human)): 94.4%
- residual activity (MELK (human)): 102%
- residual activity (PAK3 (human)): 102%
- residual activity (TXK (human)): 63.9%
- residual activity (MAPKAPK5 (human)): 92.5%
- residual activity (WEE1 (human)): 92.1%
- residual activity (ALK (human)): 105%
- residual activity (PRKCE (human)): 115%
- residual activity (BRSK1 (human)): 97.9%
- residual activity (STK11 (human)): 81.6%
- residual activity (ROCK2 (human)): 98.4%
- residual activity (CDK2 CCNA2 (human)): 101%
- residual activity (MAP3K3 (human)): 102%
- residual activity (MYLK2 (human)): 99.9%
- residual activity (MAPK9 (human)): 100%
- residual activity (NEK11 (human)): 81.3%
- residual activity (NTRK2 (human)): 104%
- residual activity (RET (human)): 85.1%
- residual activity (SGK2 (human)): 106%
- residual activity (WNK3 (human)): 99%
- residual activity (MARK4 (human)): 98.5%
- residual activity (STK24 (human)): 99%
- residual activity (PAK6 (human)): 76.7%
- residual activity (CDC42BPB (human)): 105%
- residual activity (MET (human)): 103%
- residual activity (DAPK3 (human)): 95.5%
- residual activity (MARK1 (human)): 105%
